This is an account of results in ChEMBL document CHEMBL1138228, “N,N'-Bisbenzylidenebenzene-1,4-diamines and N,N'-Bisbenzylidenenaphthalene-1,4-diamines as Sirtuin Type 2 (SIRT2) Inhibitors” (J Med Chem, 2006).

The target in experiment [1] is T1, NAD-dependent protein deacetylase sirtuin-2 (Homo sapiens) (UniProt Q8IXJ6).
T1 sequence (whole entry): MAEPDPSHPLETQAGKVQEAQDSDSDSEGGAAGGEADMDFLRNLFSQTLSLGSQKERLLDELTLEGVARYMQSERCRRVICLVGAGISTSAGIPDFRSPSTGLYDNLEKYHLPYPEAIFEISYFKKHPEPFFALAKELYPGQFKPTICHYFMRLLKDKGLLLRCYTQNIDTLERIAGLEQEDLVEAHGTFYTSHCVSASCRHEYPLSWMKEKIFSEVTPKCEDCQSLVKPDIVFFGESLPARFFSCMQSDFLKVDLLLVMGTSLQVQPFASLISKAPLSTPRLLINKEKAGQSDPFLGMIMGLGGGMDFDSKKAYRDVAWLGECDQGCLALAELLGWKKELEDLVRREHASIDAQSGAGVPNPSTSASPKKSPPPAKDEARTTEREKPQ
As to the kind of experiment: Inhibition of SIRT2 at 200 uM.

The target of experiment [2] is T2, NAD-dependent protein deacetylase sirtuin-2 (Homo sapiens, UniProt Q8IXJ6).
T2 sequence (Q8IXJ6 whole entry): T1 sequence (whole entry)
Put plainly: Inhibition of SIRT2.

Take `Oc1ccccc1CNc1ccc(NCc2ccccc2O)cc1`: the inhibition – broadly, the drop in the measured response relative to a control, in per cent – in experiment [1] came out at 27%.

For the compound `Oc1ccccc1/C=N/c1ccc(/N=C/c2ccccc2O)c2ccccc12`, the inhibition in experiment [1] amounted to 38%.

In the case of `Oc1ccc(CNc2ccc(NCc3ccc(O)cc3)cc2)cc1`, in experiment [1], the inhibition stood at 14%. The same measure, in the same setting: to `COc1cccc(/C=N/c2ccc(/N=C/c3cccc(OC)c3)cc2)c1` belongs 20%; to `C(=N\c1ccc(/N=C/c2ccccc2)cc1)/c1ccccc1`, 35%; to `Oc1ccc(/C=N/c2ccc(/N=C/c3ccc(O)cc3)cc2)cc1`, 22%. For the compound `COc1ccc(/C=N/c2ccc(/N=C/c3ccc(OC)cc3)c3ccccc23)cc1`, in experiment [1], the inhibition was found to be 17%. `Oc1cccc(/C=N/c2ccc(/N=C/c3cccc(O)c3)c3ccccc23)c1`: the inhibition in experiment [1] stood at 53%. Further, the half-inhibitory concentration (IC50) (in general, the concentration at which inhibition is half-maximal) in experiment [2] was determined as 196 µM. With `COc1ccccc1/C=N/c1ccc(/N=C/c2ccccc2OC)c2ccccc12`, in experiment [1], the inhibition turned out to be 34%. Compound `Oc1cccc(/C=N/c2ccc(/N=C/c3cccc(O)c3)cc2)c1` returned an inhibition in experiment [1] of 12%. `Oc1ccc(/C=N/c2ccc(/N=C/c3ccc(O)c(O)c3)cc2)cc1O` displayed an inhibition in experiment [1] of 13%. For `Oc1ccc(/C=N/c2ccc(/N=C/c3ccc(O)cc3)c3ccccc23)cc1`, the inhibition in experiment [1] came out at 64%. Also, the IC50 in experiment [2] turned out to be 137 µM. In experiment [1], `COc1ccccc1/C=N/c1ccc(/N=C/c2ccccc2OC)cc1` returned an inhibition of 13%. Compound `Oc1cccc(CNc2ccc(NCc3cccc(O)c3)cc2)c1` showed an inhibition in experiment [1] of 8%. For the compound `c1ccc(CNc2ccc(NCc3ccccc3)cc2)cc1`, in experiment [1], the inhibition amounted to 21%. `C(=N\c1ccc(/N=C/c2ccccc2)c2ccccc12)/c1ccccc1` gave an inhibition in experiment [1] of 18%. `Oc1ccccc1/C=N/c1ccc(/N=C/c2ccccc2O)cc1`: in experiment [1], the inhibition came out at 56%. The same compound displayed an IC50 in experiment [2] of 58.4 µM. In experiment [1], `COc1cccc(/C=N/c2ccc(/N=C/c3cccc(OC)c3)c3ccccc23)c1` came in with an inhibition of 20%.
